Paper PMC7413516, “Antidepressant-like activity and safety profile evaluation of 1H-imidazo[2,1-f]purine-2,4(3H,8H)-dione derivatives as 5-HT1A receptor partial agonists” (PLoS ONE, 2020)

Assays:
[1] = target: T1, muscarinic M3 receptor (M3R) (Cavia porcellus, UniProt H0W1Z3); experiment: Smooth muscle relaxant assay: carbachol-induced contraction of isolated guinea pig ileum; conditions: isolated guinea pig small intestine, carbachol 100 μM
T1 construct: from tissue; host or cells: isolated guinea pig ileum
T1 sequence (H0W1Z3 1-590): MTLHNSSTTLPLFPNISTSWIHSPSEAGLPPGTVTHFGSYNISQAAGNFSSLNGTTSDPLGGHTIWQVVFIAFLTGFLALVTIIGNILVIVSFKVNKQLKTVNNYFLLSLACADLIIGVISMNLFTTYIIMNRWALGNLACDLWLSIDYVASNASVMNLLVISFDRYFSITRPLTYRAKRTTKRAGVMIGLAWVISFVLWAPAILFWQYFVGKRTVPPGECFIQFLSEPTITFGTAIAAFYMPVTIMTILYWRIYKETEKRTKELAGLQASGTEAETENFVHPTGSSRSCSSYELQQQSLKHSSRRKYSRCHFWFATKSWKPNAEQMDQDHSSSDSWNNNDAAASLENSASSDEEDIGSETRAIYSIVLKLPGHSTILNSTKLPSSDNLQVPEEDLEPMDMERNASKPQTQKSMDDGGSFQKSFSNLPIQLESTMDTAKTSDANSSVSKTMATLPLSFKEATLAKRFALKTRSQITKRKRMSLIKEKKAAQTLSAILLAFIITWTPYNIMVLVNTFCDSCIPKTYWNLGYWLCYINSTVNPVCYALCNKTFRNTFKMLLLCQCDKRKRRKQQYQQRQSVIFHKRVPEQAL
Description: The experiment was carried out according to the method described previously. Male guinea pigs were sacrificed by cervical dislocation. The ileum was rapidly removed, rinsed, and cut into segments of 1.5–2.0 cm length. The tissues were mounted on a jacketed 20 mL organ bath (Tissue Organ Bath System; 750 TOBS, DMT, Denmark) filled with Krebs’s solution (NaCl 120 mM, KCl 5.6 mM, MgCl2 2.2 mM, CaCl2 2.4 mM, NaHCO3 19 mM, glucose 10 mM). The bath was aerated with 95 % O2/5 % CO2 and heated at 37°C. During the 60-min incubation period, the organ was rinsed 4 times with fresh Krebs’s buffer, and the tissues were also pre-stimulated by 60 mM KCl solution. The submaximal contraction induced by histamine (Sigma Aldrich) (2 μM) and carbachol (Sigma Aldrich) (100 μM) was evaluated in the presence and absence of the tested compounds. Amplitudes of contraction values were measured in 4 independent experiments.

[2] = tested on: PDE4B; set-up: method as in PMID 27353547; conditions: in vitro, bioluminescent detection system; ref [8]; cited from earlier work

For `Cn1c(=O)c2c(nc3n(CCCCN4CCN(c5ccccc5F)CC4)ccn23)n(C)c1=O` [AZ-853, 8-(4-(4-(2-fluorophenyl)piperazin-1-yl)butyl)-1,3-dimethyl-1H-imidazo[2,1-f]purine-2,4(3H,8H)-dione], the inhibition at 1 µM [1] is listed as 2.5% and the PDE4B inhibitory activity [2] is listed as “did not induce PDE4B and PDE10A inhibitory activity”.

In the case of `Cn1c(=O)c2c(nc3n(CCCCN4CCN(c5cccc(C(F)(F)F)c5)CC4)ccn23)n(C)c1=O` [AZ-861, 1,3-dimethyl-8-(4-(4-(3-(trifluoromethyl)phenyl)piperazin-1-yl)butyl)-1H-imidazo[2,1-f]purine-2,4(3H,8H)-dione], the inhibition at 1 µM [1] is listed as 0.17% and the PDE4B inhibitory activity [2] is listed as “did not induce PDE4B and PDE10A inhibitory activity”.
